Reference: ChEMBL document CHEMBL3880442, “NHE3-binding compounds and methods for inhibiting phosphate transport” (2014)

Key:
[1] = test system: Rattus norvegicus; test: Effect on phosphate level in urine in Sprague-Dawley rat at 0.03 mg/kg administered via oral gavage measured after 16 hrs by gravimetric analysis relative to vehicle-treated control; format: functional
[2] = test system: Rattus norvegicus; test: Effect on phosphate level in urine in Sprague-Dawley rat at 2 mg/kg administered via oral gavage measured after 16 hrs by gravimetric analysis relative to vehicle-treated control; format: functional
[3] = test system: Rattus norvegicus; test: Effect on sodium level in urine in Sprague-Dawley rat at 2 mg/kg administered via oral gavage measured after 16 hrs by gravimetric analysis relative to vehicle-treated control; format: functional
[4] = Toxicity in Sprague-Dawley rat model of uremia-associated vascular calcification assessed as change in body weight in presence of calcitriol; conditions: in vivo
[5] = test system: Rattus norvegicus; test: Effect on sodium level in urine in Sprague-Dawley rat at 1 mg/kg administered via oral gavage measured after 16 hrs by gravimetric analysis relative to vehicle-treated control; format: functional

Compound `CN1Cc2c(Cl)cc(Cl)cc2[C@H](c2cccc(S(=O)(=O)NCCOCCOCCNC(=O)NCCCCNC(=O)NCCOCCOCCNS(=O)(=O)c3cccc([C@@H]4CN(C)Cc5c(Cl)cc(Cl)cc54)c3)c2)C1` [TENAPANOR] has an Activity [1] of 80%.
`CN1Cc2c(Cl)cc(Cl)cc2[C@H](c2cccc(S(=O)(=O)NCCOCCOCCNC(=O)CCC(CCC(=O)NCCOCCOCCNS(=O)(=O)c3cccc([C@@H]4CN(C)Cc5c(Cl)cc(Cl)cc54)c3)(CCC(=O)NCCOCCOCCNS(=O)(=O)c3cccc([C@@H]4CN(C)Cc5c(Cl)cc(Cl)cc54)c3)NC(=O)NCP(=O)(O)O)c2)C1` showed an Activity [2] of 50% and an Activity [3] of 130%.
With `CN1Cc2c(Cl)cc(Cl)cc2[C@H](c2cccc(S(=O)(=O)NCCOCCOCCNC(=O)NCCCCNC(=O)NCCOCCOCCNS(=O)(=O)c3cccc([C@@H]4CN(C)Cc5c(Cl)cc(Cl)cc54)c3)c2)C1.Cl.Cl` [TENAPANOR HYDROCHLORIDE] the Activity [4] was “Non-Toxic” and the Activity [5] was 11%.
